System: 832693-133-R-J1-PDC multi-cell spheroids, viability
Assay: Anticancer human tumor 832693-133-R-J1-PDC patient-derived head and neck squamous carcinoma cell line growth inhibition [IpAb]
Settings: for IC50: curve of first compound; for viability, T/C: stronger effect = lower value
Method in brief: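 Spheroids of 60% malignant cells, 25% HUVEC and 15% MSC were exposed to targeted agents combined with ipatasertib or abemaciclib. Doses started at or near clinical Cmax (10 microM when unknown) and fell in half-log steps.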

[1] = second compound 0.01 µM, first compound 0.0316 µM
[2] = second compound 0.01 µM, first compound 0.1 µM
[3] = second compound 0.01 µM, first compound 0.316 µM
[4] = second compound 0.01 µM, first compound 1 µM
[5] = second compound 0.0316 µM, first compound 0.0316 µM
[6] = second compound 0.0316 µM, first compound 0.1 µM
[7] = second compound 0.0316 µM, first compound 0.316 µM
[8] = second compound 0.0316 µM, first compound 1 µM
[9] = second compound 0.1 µM, first compound 0.0316 µM
[10] = second compound 0.1 µM, first compound 0.1 µM
[11] = second compound 0.1 µM, first compound 0.316 µM
[12] = second compound 0.1 µM, first compound 1 µM
[13] = second compound 0.316 µM, first compound 0.0316 µM
[14] = second compound 0.316 µM, first compound 0.1 µM
[15] = second compound 0.316 µM, first compound 0.316 µM
[16] = second compound 0.316 µM, first compound 1 µM
[17] = second compound 1 µM, first compound 0.0316 µM
[18] = second compound 1 µM, first compound 0.1 µM
[19] = second compound 1 µM, first compound 0.316 µM
[20] = second compound 1 µM, first compound 1 µM
[21] = second compound 0.01 µM, first compound 3.16 µM
[22] = second compound 0.01 µM, first compound 10 µM
[23] = second compound 0.0316 µM, first compound 3.16 µM
[24] = second compound 0.0316 µM, first compound 10 µM
[25] = second compound 0.1 µM, first compound 3.16 µM
[26] = second compound 0.1 µM, first compound 10 µM
[27] = second compound 0.316 µM, first compound 3.16 µM
[28] = second compound 0.316 µM, first compound 10 µM
[29] = second compound 1 µM, first compound 3.16 µM
[30] = second compound 1 µM, first compound 10 µM
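Further: spheroids exposed to the drugs for one week before the viability readout.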
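Wherever viability, T/C is given: 100% = DMSO vehicle control wells.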

COc1c(OCCCN2CCOCC2)ccc2c3n(c(=NC(=O)c4cnc(N)nc4)nc12)CCN3 + CCN1CCN(Cc2ccc(Nc3ncc(F)c(-c4cc(F)c5nc(C)n(C(C)C)c5c4)n3)nc2)CC1
IC50 (second compound 0.01 µM): 0.0144 µM
IC50 (second compound 0.0316 µM): 0.0112 µM
IC50 (second compound 0.1 µM): 0.00716 µM
IC50 (second compound 0.316 µM): 0.00444 µM
IC50 (second compound 1 µM): 0.00611 µM
viability, T/C (second compound 0.01 µM, first compound 0.00316 µM): 89.4%
viability, T/C (second compound 0.01 µM, first compound 0.01 µM): 61.8%
viability, T/C [1]: 24.7%
viability, T/C [2]: 7.08%
viability, T/C [3]: 3.46%
viability, T/C [4]: 5.82%
viability, T/C (second compound 0.0316 µM, first compound 0.00316 µM): 74.2%
viability, T/C (second compound 0.0316 µM, first compound 0.01 µM): 52.7%
viability, T/C [5]: 23.4%
viability, T/C [6]: 5.88%
viability, T/C [7]: 3%
viability, T/C [8]: 2.63%
viability, T/C (second compound 0.1 µM, first compound 0.00316 µM): 60.1%
viability, T/C (second compound 0.1 µM, first compound 0.01 µM): 45.6%
viability, T/C [9]: 22.1%
viability, T/C [10]: 6.68%
viability, T/C [11]: 3.33%
viability, T/C [12]: 3.51%
viability, T/C (second compound 0.316 µM, first compound 0.00316 µM): 53.8%
viability, T/C (second compound 0.316 µM, first compound 0.01 µM): 40.8%
viability, T/C [13]: 21.5%
viability, T/C [14]: 9.72%
viability, T/C [15]: 6.61%
viability, T/C [16]: 6.55%
viability, T/C (second compound 1 µM, first compound 0.00316 µM): 53.2%
viability, T/C (second compound 1 µM, first compound 0.01 µM): 47.7%
viability, T/C [17]: 23.4%
viability, T/C [18]: 16.2%
viability, T/C [19]: 12%
viability, T/C [20]: 14.8%

Cc1nc(NC(=O)N2CCCC2C(N)=O)sc1-c1ccnc(C(C)(C)C(F)(F)F)c1 (stereo not given) + CCN1CCN(Cc2ccc(Nc3ncc(F)c(-c4cc(F)c5nc(C)n(C(C)C)c5c4)n3)nc2)CC1
IC50 (second compound 0.01 µM): 0.536 µM
IC50 (second compound 0.0316 µM): 0.264 µM
IC50 (second compound 0.1 µM): 0.138 µM
IC50 (second compound 0.316 µM): 0.128 µM
IC50 (second compound 1 µM): 0.0359 µM
viability, T/C [1]: 80.1%
viability, T/C [2]: 87.8%
viability, T/C [3]: 65.7%
viability, T/C [4]: 29.2%
viability, T/C [21]: 16.2%
viability, T/C [22]: 3.69%
viability, T/C [5]: 75.8%
viability, T/C [6]: 69%
viability, T/C [7]: 46%
viability, T/C [8]: 21.4%
viability, T/C [23]: 10.5%
viability, T/C [24]: 3.09%
viability, T/C [9]: 57.4%
viability, T/C [10]: 53.5%
viability, T/C [11]: 42.3%
viability, T/C [12]: 21.4%
viability, T/C [25]: 11.4%
viability, T/C [26]: 2.17%
viability, T/C [13]: 55.4%
viability, T/C [14]: 49.4%
viability, T/C [15]: 44.9%
viability, T/C [16]: 19.4%
viability, T/C [27]: 11.5%
viability, T/C [28]: 2.65%
viability, T/C [17]: 49.7%
viability, T/C [18]: 48%
viability, T/C [19]: 37.6%
viability, T/C [20]: 25.1%
viability, T/C [29]: 14%
viability, T/C [30]: 6.29%

Cn1nccc1Nc1nccc(-c2ccn(C(CO)c3ccc(Cl)c(F)c3)c(=O)c2)n1 (stereo not given) + CCN1CCN(Cc2ccc(Nc3ncc(F)c(-c4cc(F)c5nc(C)n(C(C)C)c5c4)n3)nc2)CC1
IC50 (second compound 0.01 µM): 1.14 µM
IC50 (second compound 0.0316 µM): 0.852 µM
IC50 (second compound 0.1 µM): 0.444 µM
IC50 (second compound 0.316 µM): 0.617 µM
IC50 (second compound 1 µM): 5.37 µM
viability, T/C [1]: 87.8%
viability, T/C [2]: 83.6%
viability, T/C [3]: 67.6%
viability, T/C [4]: 55.9%
viability, T/C [21]: 31.9%
viability, T/C [22]: 30.3%
viability, T/C [5]: 78%
viability, T/C [6]: 68.1%
viability, T/C [7]: 61.2%
viability, T/C [8]: 52.7%
viability, T/C [23]: 31%
viability, T/C [24]: 34.2%
viability, T/C [9]: 70.7%
viability, T/C [10]: 59.5%
viability, T/C [11]: 53.7%
viability, T/C [12]: 47.2%
viability, T/C [25]: 27.1%
viability, T/C [26]: 32.3%
viability, T/C [13]: 68.7%
viability, T/C [14]: 59.5%
viability, T/C [15]: 53.3%
viability, T/C [16]: 50.5%
viability, T/C [27]: 36.8%
viability, T/C [28]: 31.9%
viability, T/C [17]: 74.9%
viability, T/C [18]: 82.7%
viability, T/C [19]: 63.6%
viability, T/C [20]: 62.7%
viability, T/C [29]: 57.8%
viability, T/C [30]: 43.2%

From PubChem BioAssay AID2060337 (Molecular Pharmacology Branch, DTP, NCI, 2025)
